Experimental data published in paper PMC6792352, “Limited Chemical Structural Diversity Found to Modulate Thyroid Hormone Receptor in the Tox21 Chemical Library” (Environmental Health Perspectives, 2019).
Structures can show the parent of a compound that is named as a salt.

Test: in vitro
Details: rat, gh3-tre-luc cells, AC50 (uM) modified / 1000

Structure (SMILES)	CC50 at 24 h [µM]
CC(C)(C)NCCO [2-(tert-Butylamino)ethanol]	> 90
c1ccc2ccccc2c1 [Naphthalene]	> 90
C[C@@H](O)C[C@@H](C)O [2,4-Pentanediol]	> 90
Nc1ccn([C@@H]2CS[C@H](CO)O2)c(=O)n1 [Lamivudine]	> 90
CCCC(C)C(=O)O (centres unmarked) [2-Methylpentanoic acid]	> 90
O=C(CS)Nc1ccccc1 [Thioglycolic acid anilide]	33.8
O=c1cccccc1O [Tropolone]	22.1
CNC(=O)N(c1ccccc1)c1ccccc1 [N'-Methyl-N,N-diphenylurea]	> 90
CC(=O)N(CC(C)C(=O)O)c1c(I)cc(I)c(N)c1I (centres unmarked) [Iocetamic acid]	> 20
CC(N)=O [Acetamide]	> 200
CC(C)C[C@H](NC(=O)OCC1c2ccccc2-c2ccccc21)C(=O)O [N-(9-Fluorenylmethoxycarbonyl)-L-leucine]	> 90
NS(=O)(=O)c1ccccc1OC(F)(F)F [2-(Trifluoromethoxy)benzenesulfonamide]	> 90
Oc1ccc(C2(c3ccc(O)cc3)CCCCC2)cc1 [Bisphenol Z]	39.8
CS(=O)(=O)c1cc(C(F)(F)F)ccc1C(=O)c1cnoc1C1CC1 [Isoxaflutole]	> 90
NC(=O)c1ccccc1[N+](=O)[O-] [2-Nitrobenzamide]	> 90
CN(C(=O)CN(CCO)CC(=O)N(C)C(C)(C)Cc1ccccc1)C(C)(C)Cc1ccccc1 [Oxethazaine]	16.2
O=C(CCCCCCCCC#CI)Oc1ccccc1 [Phenyl 11-iodo-10-undecynoate]	> 50
Cc1c(N)cccc1Cl [3-Chloro-2-methylaniline]	> 90
CCC(C(=O)OCCOCCN(CC)CC)c1ccccc1 (centres unmarked) [Butamirate citrate]	> 50
CC(C)NCC(O)c1cc(O)cc(O)c1 (centres unmarked) [Orciprenaline sulfate]	> 50

Structure (SMILES)	CC50 at 24 h [µM]
CCO[Si](CCCCl)(OCC)OCC [(3-Chloropropyl)(triethoxy)silane]	> 90
CCCCCCCCCCCC [Dodecane]	> 90
C=CC(=C)CCCC(C)(C)OC(C)=O [2-methyl-6-methylideneoct-7-en-2-yl acetate]	> 90
C=CC(=O)OCC(COC(=O)C=C)(COC(=O)C=C)COC(=O)C=C [Pentaerythritol tetraacrylate]	3
CCCCC/C=C\CCC=O [(4Z)-4-Decenal]	> 90
NC(=S)NS(=O)(=O)c1ccc(N)cc1 [Sulfathiourea]	> 50
COC(=O)c1ccc(C)cc1 [Methyl 4-methylbenzoate]	> 90
OCC(S)CS (centres unmarked) [Dimercaprol]	12.5
Nc1nc(N)nc(N)n1 [Melamine]	> 90
OC(CCN1CCCC1)(c1ccccc1)C1CCCCC1 (centres unmarked) [Procyclidine hydrochloride]	10.6
[O-][N+](=Nc1ccccc1)c1ccccc1 [Azoxybenzene]	> 90
C1=CCC(c2ccccc2)CC1 (centres unmarked) [4-Phenyl-1-cyclohexene]	> 90
O=c1[nH]c(=O)c2c[nH]nc2[nH]1 [Oxypurinol]	> 90
O=C1NC2CCCCN2C12CCN(CCCN1c3ccccc3CCc3ccc(Cl)cc31)CC2 (centres unmarked) [Mosapramine]	5.62
C=C(C#N)C(=O)OCC [Ethyl cyanoacrylate]	> 90
CC(C)C(=O)c1c(C(C)C)nn2ccccc12 [Ibudilast]	> 50
CN(C)CCOC(C)(c1ccccc1)c1ccccn1 (centres unmarked) [Doxylamine succinate]	> 50
CC(C)CCC[C@@H](C)[C@H]1CC(=O)C2=C3CC[C@H]4C[C@@H](O)CC[C@]4(C)[C@H]3CC[C@@]21C [Colestolone]	> 50
OCCCCCO [1,5-Pentanediol]	> 100
CNC(=O)N(C)c1nc2ccccc2s1 [Methabenzthiazuron]	> 90

Structure (SMILES)	CC50 at 24 h [µM]
O=C(Nc1ccccc1)c1cc([N+](=O)[O-])ccc1Cl [2-Chloro-5-nitro-N-phenylbenzamide]	49.9
N[C@H]1C(O)O[C@H](CO)[C@@H](O)[C@@H]1O (some centres unmarked) [Glucosamine hydrochloride]	> 50
O=C(O)CCCOc1ccc(Cl)cc1Cl [2,4-DB-sodium]	> 90
C=CCN(C1=NCCN1)c1c(Cl)cccc1Cl [Alinidine]	> 50
CN1C(C)(C)CC(O)CC1(C)C [1,2,2,6,6-Pentamethylpiperidin-4-ol]	> 90
CCCOC(=O)c1ccccc1C(=O)OCCC [Dipropyl phthalate]	> 90
CC1=C(Br)C(=O)C(Br)=C/C1=C(/c1ccccc1S(=O)(=O)O)c1cc(Br)c(O)c(Br)c1C [Bromocresol green sodium salt]	44.7
O=C(O[C@@H]1C[C@@H]2C[C@H]3C[C@H](C1)N2CC3=O)c1c[nH]c2ccccc12 [Dolasetron mesylate]	37.3
O=C(O)c1cc2ccccc2c(Cc2c(O)c(C(=O)O)cc3ccccc23)c1O [Pamoic acid]	> 50
CC(=N)S [Thioacetamide]	> 90
CCOC(=O)CC#N [Ethyl cyanoacetate]	> 90
CCOCCOCCOCC [Diethylene glycol diethyl ether]	> 90
CCCC(CCC)C(N)=O [Valpromide]	> 50
COCc1cnc(C2=NC(C)(C(C)C)C(=O)N2)c(C(=O)O)c1 (centres unmarked) [Imazamox]	> 90
CCCCC(CC)COC(=O)COc1ccc(Cl)cc1C (centres unmarked) [MCPA-2-ethylhexyl]	> 90
CC(C)(c1cc(Br)c(OCC(Br)CBr)c(Br)c1)c1cc(Br)c(OCC(Br)CBr)c(Br)c1 (centres unmarked) [Tetrabromobisphenol A-bis(2,3-dibromopropyl ether)]	> 50
C#CCOc1ccc2c(C)cc(=O)oc2c1 [Giparmen]	> 50
O=c1[nH]c(=O)n([C@H]2C[C@H](O)[C@@H](CO)O2)cc1C(F)(F)F [Trifluridine]	> 50
Cc1ccccc1CCl [1-(Chloromethyl)-2-methylbenzene]	> 90

Same assay, conditions: rat, gh3-tre-luc cells, AC50 (uM) modified / 1000, Tox21_110001=Tox21_110501; viability, 1 nM T3 present, 24 h

Structure (SMILES)	CC50 at 24 h [µM]
CNC(C)(C)Cc1ccccc1 [Mephentermine hemisulfate]	> 20

Same assay, conditions: rat, gh3-tre-luc cells, AC50 (uM) modified / 1000, Tox21_110001=Tox21_112051; viability, 1 nM T3 present, 24 h

Structure (SMILES)	CC50 at 24 h [µM]
C[C@H](N)[C@H](O)c1ccc(O)c(O)c1 [Levonordefrin]	22

Same assay, conditions: rat, gh3-tre-luc cells, AC50 (uM) modified / 1000, Tox21_110001=Tox21_112835; viability, 1 nM T3 present, 24 h

Structure (SMILES)	CC50 at 24 h [µM]
C[C@H]1[C@H]2Cc3ccc(O)cc3[C@]1(C)CCN2CCc1ccccc1 [(-)-Phenazocine hydrobromide]	48.2

Same assay, conditions: rat, gh3-tre-luc cells, AC50 (uM) modified / 1000, Tox21_110001=Tox21_112931; viability, 1 nM T3 present, 24 h

Structure (SMILES)	CC50 at 24 h [µM]
CCc1cc2c(s1)-n1c(C)nnc1CN=C2c1ccccc1Cl [Etizolam]	> 50

Same assay, conditions: rat, gh3-tre-luc cells, AC50 (uM) modified / 1000, Tox21_110001=Tox21_200404; viability, 1 nM T3 present, 24 h

Structure (SMILES)	CC50 at 24 h [µM]
CCC(C)Cl (centres unmarked) [2-Chlorobutane]	> 90

Same assay, conditions: rat, gh3-tre-luc cells, AC50 (uM) modified / 1000, Tox21_110001=Tox21_200806; viability, 1 nM T3 present, 24 h

Structure (SMILES)	CC50 at 24 h [µM]
ClC(Cl)Br [Bromodichloromethane]	> 90

Same assay, conditions: rat, gh3-tre-luc cells, AC50 (uM) modified / 1000, Tox21_110001=Tox21_202091; viability, 1 nM T3 present, 24 h

Structure (SMILES)	CC50 at 24 h [µM]
Nc1ccc2ccccc2c1 [2-Naphthylamine]	> 90

Same assay, conditions: rat, gh3-tre-luc cells, AC50 (uM) modified / 1000, Tox21_110001=Tox21_202582; viability, 1 nM T3 present, 24 h

Structure (SMILES)	CC50 at 24 h [µM]
Nc1c(Br)cc(Br)c2c1C(=O)c1ccccc1C2=O [1-Amino-2,4-dibromoanthraquinone]	> 20

Same assay, conditions: rat, gh3-tre-luc cells, AC50 (uM) modified / 1000, Tox21_110001=Tox21_301412; viability, 1 nM T3 present, 24 h

Structure (SMILES)	CC50 at 24 h [µM]
Cc1cc(Cl)ccc1N=CN(C)C [Chlordimeform hydrochloride]	> 90

Same assay, conditions: rat, gh3-tre-luc cells, AC50 (uM) modified / 1000, Tox21_110001=Tox21_301761; viability, 1 nM T3 present, 24 h

Structure (SMILES)	CC50 at 24 h [µM]
CC(C)CP(=S)(S)CC(C)C [Sodium bis(2-methylpropyl)phosphinodithioate]	> 90

Same assay, conditions: rat, gh3-tre-luc cells, AC50 (uM) modified / 1000, Tox21_110001=Tox21_301843; viability, 1 nM T3 present, 24 h

Structure (SMILES)	CC50 at 24 h [µM]
COC(=O)c1ccccc1S(=O)(=O)NC(=O)Nc1nc(C)cc(C)n1 [Sulfometuron-methyl]	> 90

Same assay, conditions: rat, gh3-tre-luc cells, AC50 (uM) modified / 1000, Tox21_110001=Tox21_302509; viability, 1 nM T3 present, 24 h

Structure (SMILES)	CC50 at 24 h [µM]
NC(=O)O [Ammonium carbamate]	> 90
